Measured values taken from patent publication US9481743B2, “Polyelectrolyte polymers, their manufacture and use” (priority 2013, dated 2016).
Where “and” joins values, the source holds several entries; their conditions need not be identical. Equal entries are not always repeated.

Tests used:
[1] = Thermal degradation by thermal gravimetric analysis (TGA); assay type: physicochemical; details: 10° C./min, nitrogen
Description: Nuclear Magnetic Resonance (NMR) spectroscopy was conducted on a Varian INOVA 400 MHz spectrometer (^1H, 400.09 MHz, ^31P{^1H} 161.82 MHz, ^19F, 376.15 MHz). All ^1H spectra were referenced relative to tetramethyl silane (CDCl3; ^1H δH=7.26 ppm and CO(CD3)2; ^1H δH=2.04). The chemical shifts for ^31P{H} NMR spectroscopy were referenced using an external standard (85% H3PO4; δP=0). The chemical shifts for ^19F{^1H} NMR spectroscopy were also referenced using an external standard (trifluorotoluene; δF=−63.9 ppm). Infrared spectra were recorded using a Bruker Tensor 27 spectrometer using attenuated total reflectance mode (ATR) using a ZnSe crystal. […] Water contact angles (WCA) were measured using a Kruss DSA100 Drop Shape Analyzer and analyzed using Drop Shape Analysis. Thermal degradation was determined using Thermal Gravimetric Analysis (TGA) on a Q600 SDT TA instrument. […] Glass transition temperatures were determined using Differential Scanning calorimetry (DSC) on a DSC Q20 TA instrument. […] Melting points of all HFPS were determined using a Gallenkamp Variable Heater in air. Mass spectrometry was recorded in both positive and negative ion modes using electrospray ionization (ESI) Micromass LCT spectrometer. […] The positive or negative secondary ions were extracted from the sample surface, mass separated and detected via a reflectron-type time-of-flight analyser. […]

[2] = Solubility/miscibility tests; assay type: physicochemical
Description: Approximately 5-10 mg of compound was added to a test tube followed by the addition of 1.5 mL of solvent followed by 5 seconds of gentle stirring. If dissolution was not observed immediately, the mixture was further stirred and sonicated for 30 seconds. Material was deemed soluble if the resulting solution was free of particulate and haze, determined by visual inspection. […] If solutions remained hazy, they were referred to as emulsion mixtures.

[3] = Slow heating within a mass spectrometer, perfluoro-tert-butanol fragment m/z 197 monitored; assay type: physicochemical; details: heated slowly within a mass spectrometer
From the text: Compound [3b]Cl was heated slowly within a mass spectrometer and the fragments of perfluoro-tert-butanol was monitored.

[4] = of the protonated form; cited from earlier work
[5] = Density of surface phosphonium cations by UV-vis (fluorescein dye); assay type: physicochemical
Description: Characterization by FTIR-ATR spectroscopy confirmed the conversion of acrylate functionality post polymerization. Percent cure was determined using a literature procedure. The intensity of the acrylate vibration at 810 cm^−1 was compared to the C═O vibration at 1750 cm^−1 both before and after irradiation. […] The density of surface phosphonium cations was determined by UV-vis spectroscopy as described in a literature procedure.
Characterization by FTIR-ATR spectroscopy confirmed the conversion of acrylate functionality post polymerization. […] The density of surface phosphonium cations was determined by UV-vis spectroscopy as described in a literature procedure^23. […] This assumes a 1:1 ratio of positive and negative charge on the surface.
Before deposition of [Au25L18]^−, the number of accessible charges on the PPF was quantified. A known protocol utilizing fluorescein dye was employed to determine the value for the above system and to relate this quantity back to the percentage of phosphonium monomers that were included in the original formulation.^23 This procedure is commonly used as a characterization technique for films containing surface-bound quaternary salts. […] At 30 wt %, a dramatic increase in the number of quaternary charges was observed (1.5×10^15 cations/cm^2). Increasing the salt content to 37.5 and 47.5 wt % yielded surfaces with 8.2×10^15 and 1.4×10^16 cations/cm^2, respectively. […] Use of low melting phosphonium salts permits formation of a formulation having low viscosity despite the high ion content, allowing for ease of handling and deposition. Use of high melting point organic salts in a similar fashion generates formulations with relatively high viscosities or significant solubility issues, which manifest themselves in poor films. Advantages of the phosphonium-based acrylate monomer in the fabrication of the charged surfaces can thus be seen.

[6] = system: Escherichia coli; experiment: Antibacterial drop-test of UV-cured films; assay type: cell-based
Description: (§1) A desired amount of 2-hydrox-2-methy-1-phenyl-propanone (5 wt %), diacrylate crosslinker (EB 130, a cyclic aliphatic diacrylate) and the acrylate-appended phosphonium salt were weighed and combined in screw top vials. The mixture was then insonated at 45° C. for 20 min until the solutions were free of particulate and haze. After cooling to room temperature, the solutions were cast on polyester films and irradiated with UV light three times. Leached films were treated with H2O (Milli-Q) in a wrist action shaker for 4 hours, followed by washing with H2O (2×10 mL) and air drying. Both leached and unleached films were subjected to the antibacterial test (below).
(§2) The antibacterial activities of the charged surfaces against Gram-negative bacteria Escherichia coli […] were studied using the antibacterial drop-test. E. coli precultured in 15 mL of nutrient broth (Difco™ BD) at 37° C. for 24 h, was washed by centrifuging at 4000 rpm for 10 min. After removing the supernatant, the cells were washed with phosphate buffered saline (PBS) twice and re-suspended and diluted to approximately 10^6 colony forming units (CFU)/mL in PBS solution. The samples were placed in sterilized Petri dishes. 100 μL of PBS solution with bacteria was added dropwise onto sterilized surfaces until completely covered. The petri dishes were sealed and placed in an incubator at 37° C. with the humidity 46%. After 4 hr, the bacteria were washed from the surface of the sample by using 10 mL PBS in the sterilized Petri dish. From this solution, 100 μL was spread onto solid plate count agar (Difco™ BD). After incubation for 24 h at 37° C., the number of surviving bacterial colonies on the Petri dishes were counted. The results after multiplication with the dilution factor were expressed as CFU per mL. The above experiments were carried out in triplicate for each sample. The percentage of killed bacteria was calculated as [(CFU of initial bacterial suspension−CFUs following surface contact)/CFU of initial bacterial suspension]×100.

[7] = system: S. Aureus; experiment: Antibacterial drop-test of UV-cured films; assay type: cell-based
Description: as §1, §2

Structure (SMILES): C=Cc1ccc(C[P+](CCCOC(C(F)(F)F)(C(F)(F)F)C(F)(F)F)(CCCOC(C(F)(F)F)(C(F)(F)F)C(F)(F)F)CCCOC(C(F)(F)F)(C(F)(F)F)C(F)(F)F)cc1.[Cl-] [[3b]Cl]
- Decomposition Point [1]: 198 °C and 197* ° C.
- Solubility (in words) ([2]; chloroform): soluble
- Solubility (in words) ([2]; dichloromethane): soluble
- Solubility (in words) ([2]; most solvents including diethyl ether): high solubility
- Time at which signal at m/z=197 was at a maximum [3]: 889 s
- Time until fragment at m/z=197 was observed [3]: 532 s

Structure (SMILES): OC(C(F)(F)F)(C(F)(F)F)C(F)(F)F [perfluoro-tert-butoxide]
- pKa [4]: 5.2

Structure (SMILES): C=CC(=O)OCCC[P+](CCCC)(CCCC)CCCC.[Br-] [[4]Br, (3-(acryloyloxy)propyl)tributylphosphonium bromide]
- Charge/Unit area ([5]; 25% [4]Br film): 0 ×10^x Y^+/cm^2
- Charge/Unit area ([5]; 30% [4]Br film): 1.47 × 10^15 ×10^x Y^+/cm^2
- Charge/Unit area ([5]; 37.5% [4]Br film): 8.18 × 10^15 ×10^x Y^+/cm^2
- Charge/Unit area ([5]; 47.5% [4]Br film): 1.42 × 10^16 ×10^x Y^+/cm^2
- % E. coli killed (unleached) ([6]; 25% [4]Br in EB 130 film): No
- % E. coli killed (unleached) ([6]; 30% [4]Br in EB 130 film): 30 ± 5%
- % E. coli killed (unleached) ([6]; 37.5% [4]Br in EB 130 film): 46 ± 7%
- % E. coli killed (unleached) ([6]; 47.5% [4]Br in EB 130 film): 82 ± 9%
- % S. Aureus killed (unleached) ([7]; 30% [4]Br in EB 130 film): 100 ± 2%
- % S. Aureus killed (leached) ([7]; 47.5% [4]Br in EB 130 film, leached): 100 ± 2%
- % S. Aureus killed (unleached) ([7]; 47.5% [4]Br in EB 130 film): 100 ± 2%
